{
  "source": "patent US20010041708A1",
  "about": "“Compositions for preventing cellulite in mammalian skin” (Zen-Bio, Inc., priority 2000, published 2001)",
  "key": {"3T3-L1 preadipocytes [1]": {"system": "3T3-L1 preadipocytes", "test": "Fatty acid composition of neutral and phospholipid fractions of treated cultures", "assay_type": "cell-based, murine"}, "[2]": {"system": "3T3-L1 adipocyte cell line", "test": "Lipolysis of triglycerides (glycerol release) in 3T3-L1 adipocyte cell line", "assay_type": "cell-based, rodent"}, "[3]": {"system": "stromal vascular (SV) cells from human adipose tissue", "test": "Triglyceride (TG) content of differentiating primary cultures of SV cells", "assay_type": "cell-based", "conditions": "day 11", "protocol": "Abdominal adipose tissue (Exp. 1-5) and thigh adipose tissue (Exp. 5b) were obtained from middle-aged females with body mass indexes <30.0 during liposuction or elective surgery. Subsequently, tissue was minced and enzymatically digested for 45 min in a Krebs-Ringer buffer containing 1 mg/mL collagenase (CLS-1, Worthington Biochemical Corp, Lakewood, N.J.), 15 mg/mL bovine serum albumin (BSA), 5 mM glucose and 100 mM HEPES (pH 7.4). Digestion was carried out at a 5 mL/1 g ratio (digestion solution: tissue mass). The digesta was then filtered through 200- and 60-micron mesh and pelleted at 600×g for 5 min. The SV cells were resuspended in a RBC lysis buffer for 10 min and then filtered and recentrifuged to remove contaminating […]. Cultures of SV cells were grown in proliferation medium containing 90% DME/Ham's F-10 (1:1, v/v), 10% (v/v) fetal bovine serum (FBS), 15 mM HEPES (pH 7.4), 60 U/mL penicillin, 60 U/mL streptomycin, and 25 ug/mL fungizone. Cultures were incubated at 37° C. in a humidified […]:CO2 (90:10%) atmosphere. SV cells were grown to 80% confluency and then cryopreserved in liquid nitrogen in aliquots (2×10^6 cells/mL).\nCryopreserved aliquots were subsequently thawed, seeded in T-150 flasks (e.g., 1 vial per 2 T-150 flasks), and grown in proliferation media until 80% confluent. At this time the cells were removed via trypsinization, seeded (3×10^4/cm^2, except for Exp. 1) in 24-well or 96-well (Exp. 5b) Falcon dishes, and allowed to attach for 24 h in proliferation medium. Following attachment, cultures were grown in differentiation medium for the next 3 d which contained DME/Ham's F-10 (1:1,v/v), 15 mM HEPES (pH 7.4), 33 uM biotin, 17 uM pantothenate, 100 nM human insulin, 1 uM dexamethasone (DEX), 60 U/mL penicillin, 60 U/mL streptomycin, 25 ug/mL fungizone, 0.25 mM isobutylmethylxanthine (IBMX), and TZD (Exp. 1 & 2=BRL 49653; Exp. 3-5=Zen Bio's proprietary reagent). Thereafter, cultures were exposed to adipocyte medium consisting of 90% DME/Ham's F-10 (1:1,v/v), 15 mM HEPES (pH 7.4), 3% FBS (v/v), 33 uM biotin, 17 uM pantothenate, 100 nM human insulin, 1 uM DEX, 60 U/mL penicillin, 60 U/mL streptomycin, and 25 ug/mL fungizone. Adipocyte media was replaced every 3 d. […] After 18 day in culture, the majority of the cells contained visual lipid droplets.\nExperiment 1 was designed to determine optimal culturing conditions during differentiation of primary cultures of SV cells isolated from human adipose tissue. Specifically, the experiment was designed to determine how seeding density and thiazolidinedione (TZD; PPARγ-agonist BRL 49653) concentration influenced TG content (ug/10^6cells). SV cells were seeded at increasing densities (2-, 3-, or 4×10^4/cm^2) in differentiation media containing 0, 1, or 10 uM TZD (BRL 49653) in this 3×3 factorial design. All cultures received the same adipocyte media after 3 d of differentiation. The cultures were harvested on day 11-12 of differentiation and TG content and cell number were measured. Another set of cultures was stained with Oil Red O and counterstained with Mayer's hematoxylin to assess cellular differentiation potential (n=3 per treatment combination).\nIn Experiment 2 the impact of linoleic acid and the trans-10, cis-12 isomer of CLA on TG accumulation in these cells was examined. SV cells were seeded at a density of 3×10^4/cm^2 and continuously treated with either 10 uM linoleic acid, 100 uM linoleic acid, 10 uM trans-10, cis-12 CLA, or 100 uM trans-10, cis-12 CLA, and grown under our normal differentiation protocol. One set of control cultures contained only vehicle (BSA) and another contained vehicle plus TZD (BRL 49653). TG content and cell number were measured on day 11 of differentiation.\nThe objective of Experiment 3 was to evaluate the dose response of trans-10, cis-12 CLA, cis-9, trans-11 CLA, and linoleic acid on TG content of the cultures. […]"}, "aP2": {"system": "aP2", "test": "aP2 protein expression in 3T3-L1 preadipocytes", "assay_type": "cell-based, murine"}, "3T3-L1 preadipocytes [4]": {"system": "3T3-L1 preadipocytes", "test": "TG content of 3T3-L1 preadipocytes", "assay_type": "cell-based, murine"}, "PPARγ2": {"system": "PPARγ2", "test": "PPARγ2 protein expression in 3T3-L1 preadipocytes", "assay_type": "cell-based, murine"}, "[5]": {"system": "stromal vascular (SV) cells from human adipose tissue", "test": "De novo lipogenesis (14C-glucose incorporation into cellular lipid)", "assay_type": "cell-based", "conditions": "Exp. 5a", "protocol": "Experiments 5a and 5b were designed to determine if the trans-10, cis-12 CLA-mediated reduction in TG content was due to decreased lipogenesis and/or increased lipolysis. In Experiment 5a (lipogenesis), SV cells were seeded at a density of 3×10^4/cm^2 and continuously treated with increasing concentrations (3, 10, or 30 uM) of either linoleic acid, cis-9, tran-11 CLA, or trans-10, cis-12 CLA. A set of control cultures received vehicle (BSA) plus TZD. All cultures received differentiation media (days 1-3), adipocyte media (days 4-9), and low-glucose (˜5 mM) adipocyte media (days 10-12) prior to measuring de novo lipogenesis. On day 12, ^14C-labeled glucose incorporation into the lipid fraction of the cultures was measured for 2 h and, following lipid extraction, the radioactivity in the lipid fraction was determined by scintillation counting. Time course data (not shown) indicated a linear increase in radiolabeled glucose incorporation into lipid over 2 h.\nIncorporation of ^14C-glucose into cellular lipid was determined on day 12 of differentiation in cultures chronically treated with fatty acids or vehicle. Following the addition of fatty acids and low glucose (˜5 mM) medium to the cultures on day 12, 1.0 μCi [U-^14C]-glucose ([U-^14C]-D-glucose; SA ˜250 mCi/mmol, ICN, Costa Mesa, Calif.)/mL medium was added to the cultures for 2 h. Our time course study (data not shown) indicated a linear increase in radiolabeled glucose incorporation into lipid over a 2 h period. After 2 h, media containing unincorporated ^14C-glucose was immediately removed and the cultures were washed with 1 mL HBSS to remove unincorporated ^14C-glucose. An additional 1 mL of HBSS was added and, after vigorous tritaration, cells were transferred to glass vials. Five milliliters of a chloroform:methanol (2:1) solution was added to each vial and they were vortexed for 1 min. All samples were then centrifuged for 5 min at 1000×g to further separate the hydrophobic and hydrophilic phases. The lower hydrophobic phase was removed from the tubes and dried under nitrogen at 40° C. Five milliliters of scintillation cocktail (Scinti Verse, Fisher Scientific, Norcross, Ga.) was added to each sample, and the ^14C content was determined by liquid scintillation counting on a Beckman LS 6000 Scintillation Counter (Beckman Instruments, Palo Atlo, Calif.). […] The radioactivity in the lipid fraction from these cultures was subtracted from the total counts. Cell numbers were determined from parallel treatment groups in separate culture dishes at the time of radioisotope addition to the medium. Therefore, mean ^14C-glucose incorporation is expressed as cpm/10^6 cells."}},
  "data": [
    {"smiles": "CCCCC/C=C\\C=C\\CCCCCCCCC(=O)O", "note": "[trans-10, cis-12 CLA, 10-trans, 12-cis conjugated linoleic acid]", "values": [
      {"measurement": "Amount of cis-9 oleic acid", "setting": "3T3-L1 preadipocytes [1]", "result": "increased"},
      {"measurement": "Level of linoleic acid (18:2)", "setting": "3T3-L1 preadipocytes [1]", "result": "increased"},
      {"measurement": "Amount of cis-11 oleic acid (18:1) compared to BSA controls", "setting": "3T3-L1 preadipocytes [1]; 50 uM, neutral and polar lipid fractions", "result": "lower amounts"},
      {"measurement": "Amount of palmitoleic acid (16:1) compared to BSA controls", "setting": "3T3-L1 preadipocytes [1]; 50 uM, neutral lipid fraction", "result": "lower amounts"},
      {"measurement": "Arachidonic acid (AA) in the phospholipid fraction", "setting": "3T3-L1 preadipocytes [1]; increasing level in culture", "result": "dose-dependent increase"},
      {"measurement": "Incorporation into cellular lipid fractions", "setting": "3T3-L1 preadipocytes [1]; neutral and phospholipid fractions", "result": "incorporated into the neutral and phospholipid fractions"},
      {"measurement": "Glycerol release by the cells", "setting": "[2]", "result": "increased glycerol release"},
      {"measurement": "Less TG (ug/10^6 cells) than TZD-supplemented vehicle control cultures", "setting": "[3]; Exp. 2, 10 uM, continuous treatment", "result": 76, "unit": "%"},
      {"measurement": "TG content vs other treatments / TZD treated vehicle controls", "setting": "[3]; Exp. 2, 100 uM, continuous treatment", "result": "not significantly different"},
      {"measurement": "TG content vs TZD treated vehicle controls", "setting": "[3]; Exp. 3, 30 uM", "result": "not significantly different"},
      {"measurement": "TG content, dose response", "setting": "[3]; Exp. 3, 1-10 uM", "result": "decreased"},
      {"measurement": "Less TG content compared to TZD treated vehicle controls", "setting": "[3]; Exp. 4, 10 uM alone", "result": "approximately 60%"},
      {"measurement": "aP2 protein expression", "setting": "aP2; after 6 d of treatment", "result": "decreased"},
      {"measurement": "aP2 protein expression", "setting": "aP2; day 2 or 4 of differentiation", "result": "did not affect aP2 protein expression"},
      {"measurement": "TG content, treatment during only the first 3 d of differentiation", "setting": "3T3-L1 preadipocytes [4]", "result": "not sufficient to lower TG concentrations"},
      {"measurement": "Triglyceride content in 3T3-L1 adipocyte cells", "setting": "3T3-L1 preadipocytes [4]; 3T3-L1 adipocyte cell line", "result": "decreasing triglyceride content"},
      {"measurement": "TG-lowering effect", "setting": "3T3-L1 preadipocytes [4]; 3T3-L1 preadipocytes", "result": "responsible for the TG-lowering effects"},
      {"measurement": "TG content, treatment during entire period of differentiation", "setting": "3T3-L1 preadipocytes [4]; vs treatment during last 3 d", "result": "reduced TG content to a greater extent than treatment during the last 3 d of differentiation"},
      {"measurement": "PPARγ2 protein expression", "setting": "PPARγ2; after 6 d of treatment", "result": "decreased"},
      {"measurement": "PPARγ2 protein expression compared to BSA controls", "setting": "PPARγ2; day 2 of differentiation", "result": "increased PPARγ2 expression"},
      {"measurement": "PPARγ2 protein expression", "setting": "PPARγ2; day 4 of differentiation", "result": "no effect on PPARγ2 protein expression"},
      {"measurement": "Less 14C-glucose incorporated into cellular lipid compared to TZD treated vehicle controls", "setting": "[5]; 30 uM, day 12, 2 h", "result": 80, "unit": "%"},
      {"measurement": "Incorporation of 14C-glucose into cellular lipid per 10^6 cells, dose response", "setting": "[5]; 3, 10, 30 uM, day 12", "result": "decreased"}
    ]}
  ]
}
